Starred links: 1 amine or outer side, 2 acyl side, 3 side chain; linkers in the order of their positions; H or OH if unused. Positions of bridges follow the written chain, without caps; N, C: chain ends. Non-standard residues stand in square brackets, D forms with d. Residues, ends and D or L forms follow the SMILES beside them. *: point of attachment. hPhe(3-Cl-4-CF3) = N[C@@H](CCc1ccc(C(F)(F)F)c(Cl)c1)C(=O)O; NMeDab(N,N-(CH2CF2CH2)) = CN[C@@H](CCN1CC(F)(F)C1)C(=O)O; hPhe(4-CF3) = N[C@@H](CCc1ccc(C(F)(F)F)cc1)C(=O)O; Phe(3-CF3) = N[C@@H](Cc1cccc(C(F)(F)F)c1)C(=O)O; Phe(4-CF3) = N[C@@H](Cc1ccc(C(F)(F)F)cc1)C(=O)O; X17 = Cc1cncc(C[C@@H](C(=O)[*:2])N(C)[*:1])c1; NMePhe(4-Cl) = CN[C@@H](Cc1ccc(Cl)cc1)C(=O)O; NMePhe(2-CN) = CN[C@@H](Cc1ccccc1C#N)C(=O)O; NMePhe(4-Me) = CN[C@@H](Cc1ccc(C)cc1)C(=O)O; NMedβ3hAla = C[C@H](CC(=O)[*:2])N(C)[*:1]; Phe(4-Cl) = N[C@@H](Cc1ccc(Cl)cc1)C(=O)O; NMeGly(cPent) = CN[C@H](C(=O)O)C1CCCC1; Phe(3-I) = N[C@@H](Cc1cccc(I)c1)C(=O)O; Pro(4,4-F2) = O=C(O)[C@@H]1CC(F)(F)CN1; X26 = O=C([C@@H]1CCC[C@H]1N[*:1])[*:2]; Phe(2-Me) = Cc1ccccc1C[C@H](N)C(=O)O; Gly(cPent) = N[C@H](C(=O)O)C1CCCC1; NMeCha = CN[C@@H](CC1CCCCC1)C(=O)O; NMeChg = CN[C@H](C(=O)O)C1CCCCC1; NMeF = CN[C@@H](Cc1ccccc1)C(=O)O; NMeβAla = CN(CCC(=O)[*:2])[*:1]; NMeD = CN[C@@H](CC(=O)O)C(=O)O; NMeL = CN[C@@H](CC(C)C)C(=O)O; NMeV = CN[C@H](C(=O)O)C(C)C; d(β3hA) = C[C@@H](N)CC(=O)O; Pip = O=C(O)[C@@H]1CCCCN1; dPip = O=C(O)[C@H]1CCCCN1; NMeA = CN[C@@H](C)C(=O)O; NMeAib = CNC(C)(C)C(=O)O; Nle = CCCC[C@H](N)C(=O)O; Piperidide = C1CCN(*)CC1; Pyrrolidide = C1CCN(*)C1; Ac5c = NC1(C(=O)O)CCCC1; Aze = O=C(O)[C@@H]1CCN1; Ac4c = NC1(C(=O)O)CCC1; Sar = CNCC(=O)O
Molecular target: T1, Kras and SOS1 (biotin-tagged human Kras loaded with GDP, His-tagged human SOS1) (Homo sapiens, UniProt P01116, G12D)
T1 construct: made in house; host or cells: E. coli (stated for Kras only)
Test: Protein-protein interaction inhibition between Kras and SOS1 (KrasGl2D-SOS PPI) using AlphaScreen
Format: binding
Details: AlphaScreen; biotin-tagged human Kras loaded with GDP, His-tagged human SOS1; read-out: KRAS G12D-SOS PPI IC50
Summary of the method: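 Read-out is acceptor-bead light at 520-620 nm, arising when 680 nm-irradiated nickel donor beads pass singlet oxygen to streptavidin acceptors. The bead pair links His-tagged SOS1 with biotin-tagged, GDP-bound Kras from E. coli.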

T1 sequence (P01116 1-188 isoform P01116-2 G12D): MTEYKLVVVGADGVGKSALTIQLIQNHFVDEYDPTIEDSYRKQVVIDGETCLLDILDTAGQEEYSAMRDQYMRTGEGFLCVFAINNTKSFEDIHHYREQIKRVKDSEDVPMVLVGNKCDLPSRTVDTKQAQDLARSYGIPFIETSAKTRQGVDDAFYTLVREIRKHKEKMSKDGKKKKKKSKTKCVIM

| SMILES | IC50 |
| --- | --- |
| CC[C@H](C)[C@@H]1NC(=O)[C@H](CC(C)C)N(C)C(=O)C[C@@H](C(=O)N2CCCCC2)N(C)C(=O)[C@H](CC(C)C)NC(=O)C(C)(C)N(C)C(=O)[C@H](Cc2ccc(Cl)cc2)NC(=O)[C@H](Cc2cccc(I)c2)NC(=O)CN(C)C(=O)[C@H](CC2CCCCC2)N(C)C(=O)CN(C)C(=O)CN(C)C1=O [Compound 330] ([NMeL]I[Sar][Sar][NMeCha][Sar][Phe(3-I)][Phe(4-Cl)][NMeAib]L[NMeD]-Piperidide; lactam N-11) | 0.08 µM |
| CC[C@H](C)[C@@H]1NC(=O)[C@H](C)N(C)C(=O)C[C@@H](C(=O)N2CCCCC2)N(C)C(=O)[C@H](C(C)C)N(C)C(=O)[C@H](CC(C)C)NC(=O)[C@H](CCN2CC(F)(F)C2)N(C)C(=O)[C@H](CCc2ccc(C(F)(F)F)c(Cl)c2)NC(=O)CN(C)C(=O)[C@H](CC2CCCCC2)N(C)C(=O)CN(C)C(=O)CN(C)C1=O [Compound 331] ([NMeA]I[Sar][Sar][NMeCha][Sar][hPhe(3-Cl-4-CF3)][NMeDab(N,N-(CH2CF2CH2))]L[NMeV][NMeD]-Piperidide; lactam N-11) | 0.03 µM |
| CC(C)C[C@H]1C(=O)N[C@@H](C2CCCC2)C(=O)N(C)CC(=O)N(C)CC(=O)N(C)[C@@H](CC2CCCCC2)C(=O)N(C)CC(=O)N[C@@H](CCc2ccc(C(F)(F)F)c(Cl)c2)C(=O)N2CCC[C@H]2C(=O)NC2(CCCC2)C(=O)N(C)[C@@H](C(C)C)C(=O)N[C@H](C)CC(=O)N1C [Compound 333] (cyclo([Ac5c][NMeV][d(β3hA)][NMeL][Gly(cPent)][Sar][Sar][NMeCha][Sar][hPhe(3-Cl-4-CF3)]P)) | 0.11 µM |
| CC[C@H](C)[C@@H]1NC(=O)[C@H](CC(C)C)N(C)C(=O)C[C@@H](C(=O)N2CCCCC2)N(C)C(=O)[C@H](CC(C)C)NC(=O)C(C)(C)N(C)C(=O)[C@H](Cc2ccccc2C)NC(=O)[C@H](Cc2cccc(I)c2)NC(=O)CN(C)C(=O)[C@H](Cc2ccc(C)cc2)N(C)C(=O)[C@@H]2CCN2C(=O)CN(C)C1=O [Compound 335] ([NMeL]I[Sar][Aze][NMePhe(4-Me)][Sar][Phe(3-I)][Phe(2-Me)][NMeAib]L[NMeD]-Piperidide; lactam N-11) | 0.067 µM |
| CC[C@H](C)[C@@H]1NC(=O)[C@H](CC(C)C)N(C)C(=O)C[C@@H](C(=O)N2CCCCC2)N(C)C(=O)[C@H](CC(C)C)NC(=O)C(C)(C)N(C)C(=O)[C@H](Cc2ccc(C(F)(F)F)cc2)NC(=O)[C@H](Cc2cccc(I)c2)NC(=O)CN(C)C(=O)[C@H](CC2CCCCC2)N(C)C(=O)CN(C)C(=O)CN(C)C1=O [Compound 336] ([NMeL]I[Sar][Sar][NMeCha][Sar][Phe(3-I)][Phe(4-CF3)][NMeAib]L[NMeD]-Piperidide; lactam N-11) | 0.093 µM |
| CC[C@H](C)[C@@H]1NC(=O)[C@H](CC(C)C)N(C)C(=O)C[C@@H](C(=O)N2CCCCC2)N(C)C(=O)[C@H](C2CCCCC2)N(C)C(=O)C2(CCCC2)NC(=O)[C@H](Cc2cncc(C)c2)N(C)C(=O)[C@H](CCc2ccc(C(F)(F)F)c(Cl)c2)NC(=O)CN(C)C(=O)[C@H](CC2CCCCC2)N(C)C(=O)[C@@H]2CCN2C(=O)[C@H](C)N(C)C1=O [Compound 338] ([NMeL]I[NMeA][Aze][NMeCha][Sar][hPhe(3-Cl-4-CF3)][X17][Ac5c][NMeChg][NMeD]-Piperidide; lactam N-11) | 0.22 µM |
| CC[C@H](C)[C@@H]1NC(=O)[C@H](CC(C)C)N(C)C(=O)[C@@H]2CCC[C@H]2NC(=O)[C@H](C(C)C)N(C)C(=O)C2(CCCC2)NC(=O)[C@@H]2CCCN2C(=O)[C@H](CCc2ccc(C(F)(F)F)c(Cl)c2)NC(=O)CN(C)C(=O)[C@H](CC2CCCCC2)N(C)C(=O)CN(C)C(=O)CN(C)C1=O [Compound 347] (cyclo([Ac5c][NMeV][X26][NMeL]I[Sar][Sar][NMeCha][Sar][hPhe(3-Cl-4-CF3)]P)) | 0.027 µM |
| CC[C@H](C)[C@@H]1NC(=O)[C@H](C)N(C)C(=O)C[C@@H](C(=O)N2CCCCC2)N(C)C(=O)[C@H](C(C)C)N(C)C(=O)C2(CCCC2)NC(=O)[C@@H]2CCCN2C(=O)[C@H](CCc2ccc(C(F)(F)F)c(Cl)c2)NC(=O)[C@H]2CCCCN2C(=O)[C@H](CC2CCCCC2)N(C)C(=O)[C@@H]2CCN2C(=O)[C@H](C)N(C)C1=O [Compound 349] ([NMeA]I[NMeA][Aze][NMeCha][dPip][hPhe(3-Cl-4-CF3)]P[Ac5c][NMeV][NMeD]-Piperidide; lactam N-11) | 0.19 µM |
| CCCC[C@@H]1NC(=O)[C@H](CCc2ccc(C(F)(F)F)c(Cl)c2)NC(=O)CN(C)C(=O)[C@H](Cc2ccc(Cl)cc2)N(C)C(=O)[C@@H]2CCN2C(=O)CN(C)C(=O)[C@H]([C@@H](C)CC)NC(=O)[C@@H]2CCCCN2C(=O)C[C@@H](C(=O)N2CCCCC2)N(C)C(=O)[C@H](CC(C)C)NC(=O)C(C)(C)N(C)C1=O [Compound 352] ([Pip]I[Sar][Aze][NMePhe(4-Cl)][Sar][hPhe(3-Cl-4-CF3)][Nle][NMeAib]L[NMeD]-Piperidide; lactam N-11) | 0.0055 µM |
| CC[C@H](C)[C@@H]1NC(=O)[C@H](CC(C)C)N(C)C(=O)C[C@@H](C)N(C)C(=O)[C@H](C(C)C)N(C)C(=O)C2(CCCC2)NC(=O)[C@@H]2CCCN2C(=O)[C@H](CCc2ccc(C(F)(F)F)c(Cl)c2)NC(=O)CN(C)C(=O)[C@H](Cc2ccccc2C#N)N(C)C(=O)CN(C)C(=O)CN(C)C1=O [Compound 357] (cyclo([Ac5c][NMeV][NMedβ3hAla][NMeL]I[Sar][Sar][NMePhe(2-CN)][Sar][hPhe(3-Cl-4-CF3)]P)) | 0.022 µM |
| CC[C@H](C)[C@@H]1NC(=O)[C@H](CC(C)C)N(C)C(=O)C[C@@H](C)N(C)C(=O)[C@H](C2CCCC2)N(C)C(=O)C2(CCC2)NC(=O)[C@@H]2CC(F)(F)CN2C(=O)[C@H](CCc2ccc(C(F)(F)F)c(Cl)c2)NC(=O)CN(C)C(=O)[C@H](Cc2ccc(C)cc2)N(C)C(=O)CN(C)C(=O)CN(C)C1=O [Compound 359] (cyclo([Ac4c][NMeGly(cPent)][NMedβ3hAla][NMeL]I[Sar][Sar][NMePhe(4-Me)][Sar][hPhe(3-Cl-4-CF3)][Pro(4,4-F2)])) | 0.0032 µM |
| CC[C@H](C)[C@@H]1NC(=O)[C@H](CC(C)C)N(C)C(=O)C[C@@H](C(=O)N(C)C)N(C)C(=O)[C@H](C2CCCC2)N(C)C(=O)C2(CCCC2)NC(=O)[C@@H]2CCCN2C(=O)[C@H](CCc2ccc(C(F)(F)F)c(Cl)c2)NC(=O)CN(C)C(=O)[C@H](Cc2ccc(C)cc2)N(C)C(=O)[C@@H]2CCN2C(=O)[C@H](C)NC1=O [Compound 363, (5S,8S,11S,15S,18S,23aS,29S,35S,37aS)-8-((S)-sec-butyl)-29-(3-chloro-4-(trifluoromethyl)phenethyl)-18-cyclopentyl-11-isobutyl-N,N,5,12,16,19,33,36-octamethyl-35-(4-methylbenzyl)-4,7,10,13,17,20,23,28,31,34,37-undecaoxotetratriacontahydro-2H,4H-spiro[azeto[2,1-u]pyrrolo[2,1-i][1,4,7,10,13,16,19,22,25,28,31]undecaazacyclotetratriacontine-21,1′-cyclopentane]-15-carboxamide] ([NMeL]IA[Aze][NMePhe(4-Me)][Sar][hPhe(3-Cl-4-CF3)]P[Ac5c][NMeGly(cPent)][NMeD]-NMe2; lactam N-11) | 0.00065 µM |
| CC[C@H](C)[C@@H]1NC(=O)[C@H](CC(C)C)NC(=O)C[C@@H](C(=O)N2CCCCC2)N(C)C(=O)[C@H](C(C)C)N(C)C(=O)C2(CCCC2)NC(=O)[C@@H]2CCCN2C(=O)[C@H](CCc2ccc(C(F)(F)F)c(Cl)c2)NC(=O)CN(C)C(=O)[C@H](CC2CCCCC2)N(C)C(=O)[C@@H]2CCN2C(=O)[C@H](C)N(C)C1=O [Compound 368] (LI[NMeA][Aze][NMeCha][Sar][hPhe(3-Cl-4-CF3)]P[Ac5c][NMeV][NMeD]-Piperidide; lactam N-11) | 0.0027 µM |
| CC[C@H](C)[C@@H]1NC(=O)CCN(C)C(=O)CN(C)C(=O)[C@H](C2CCCC2)N(C)C(=O)C2(CCCC2)NC(=O)[C@@H]2CCCN2C(=O)[C@H](CCc2ccc(C(F)(F)F)c(Cl)c2)NC(=O)CN(C)C(=O)[C@H](CC2CCCCC2)N(C)C(=O)CN(C)C(=O)CN(C)C1=O [Compound 369] (cyclo([Ac5c][NMeGly(cPent)][Sar][NMeβAla]I[Sar][Sar][NMeCha][Sar][hPhe(3-Cl-4-CF3)]P)) | 0.35 µM |
| CC[C@H](C)[C@@H]1NC(=O)[C@H](C)N(C)C(=O)C[C@@H](C(=O)N2CCCC2)NC(=O)[C@H](CC(C)C)NC(=O)[C@H](Cc2ccccc2)N(C)C(=O)[C@H](CC(C)C)NC(=O)[C@H](CCc2ccc(C(F)(F)F)cc2)NC(=O)CN(C)C(=O)[C@H](Cc2ccc(Cl)cc2)N(C)C(=O)CN(C)C(=O)CN(C)C1=O [Compound 372] ([NMeA]I[Sar][Sar][NMePhe(4-Cl)][Sar][hPhe(4-CF3)]L[NMeF]LD-Pyrrolidide; lactam N-11) | 0.13 µM |
| CC[C@H](C)[C@@H]1NC(=O)[C@H](CC(C)C)N(C)C(=O)C[C@@H](C)N(C)C(=O)[C@H](C2CCCCC2)N(C)C(=O)C2(CCC2)NC(=O)[C@@H]2CC(F)(F)CN2C(=O)[C@H](CCc2ccc(C(F)(F)F)c(Cl)c2)NC(=O)CN(C)C(=O)[C@H](Cc2ccc(C)cc2)N(C)C(=O)CN(C)C(=O)CN(C)C1=O [Compound 375] (cyclo([Ac4c][NMeChg][NMedβ3hAla][NMeL]I[Sar][Sar][NMePhe(4-Me)][Sar][hPhe(3-Cl-4-CF3)][Pro(4,4-F2)])) | 0.012 µM |
| CC[C@H](C)[C@@H]1NC(=O)[C@H](CC(C)C)N(C)C(=O)C[C@@H](C(=O)N2CCCCC2)N(C)C(=O)[C@H](CC(C)C)NC(=O)C(C)(C)N(C)C(=O)[C@H](Cc2cccc(C(F)(F)F)c2)NC(=O)[C@H](Cc2cccc(I)c2)NC(=O)CN(C)C(=O)[C@H](Cc2ccc(C)cc2)N(C)C(=O)CN(C)C(=O)CN(C)C1=O [Compound 376] ([NMeL]I[Sar][Sar][NMePhe(4-Me)][Sar][Phe(3-I)][Phe(3-CF3)][NMeAib]L[NMeD]-Piperidide; lactam N-11) | 0.044 µM |

From patent publication US12371454B2, “Cyclic peptide compound having Kras inhibitory action” (priority 2019, dated 2025)
